The results in this text go back to patent publication US9481654B2, “Compositions and methods for inhibition of the JAK pathway” (Rigel Pharmaceuticals, Inc., priority 2006, dated 2016).

In test [1] the test system is IFNγ induced ICAM-1 (CD54) up-regulation in A549 lung epithelial cells (JAK/Stat pathway). Description: A549 Epithelial Line Stimulated with IFNγ (ICAM-1 surface expression, flow cytometry). It is filed as cell-based, human. The conditions noted are these: Table III Example 5. The source says:
The activity of the compounds of the invention may additionally be characterized by assaying the effect of the 2,4-pyrimidinediamine compounds described herein on A549 lung epithelial cells and U937 cells. A549 lung epithelial cells and U937 cells up-regulate ICAM-1 (CD54) surface expression in response to a variety of different stimuli. Therefore, using ICAM-1 expression as readout, test compound effects on different signaling pathways can be assessed in the same cell type. Stimulation with IL-1β through the IL-1β receptor activates the TRAF6/NFκB pathway resulting in up-regulation of ICAM-1. IFNγ induces ICAM-1 up-regulation through activation of the JAK1/JAK2 pathway. The up-regulation of ICAM-1 can be quantified by flow cytometry across a compound dose curve and EC50 values are calculated. Exemplary assays of this type are described in greater detail in Examples 5 and 6.
A549 lung epithelial cells up-regulate ICAM-1 (CD54) surface expression in response to a variety of different stimuli. Therefore, using ICAM-1 expression as readout, compound effects on different signaling pathways can be assessed in the same cell type. IFNγ up-regulates ICAM-1 through activation of the JAK/Stat pathway. In this example, the up-regulation of ICAM-1 by IFNγ was assessed.
The A549 lung epithelial carcinoma cell line originated from the American Type Culture Collection. Routine culturing was with F12K media (Mediatech Inc., Lenexa, Kans., Cat. No. 10-025-CV) with 10% fetal bovine serum, 100 I.U. penicillin and […] streptomycin (complete F12k media). Cells were incubated in a humidified atmosphere of 5% CO2 at 37° C. Prior to use in the assay, A549 cells were washed with PBS and trypsinized (Mediatech Inc., Cat. No. 25-052-CI) to lift the cells. The trypsin cell suspension was neutralized with complete F12K media and centrifuged to pellet the cells. The cell pellet was resuspended in complete F12K media at a concentration of 2.0×10^5/mL. Cells were seeded at 20,000 per well, 100 μL total volume, in a flat bottom tissue culture plate and allowed to adhere overnight.
On day two, A549 cells were pre-incubated with a 2,4-pyrimidinediamine test compound or DMSO (control) (Sigma-Aldrich, St. Louis, Mo., Catalog No. D2650) for 1 hour. The cells were then stimulated with IFNγ (75 ng/mL) (Peprotech Inc., Rocky Hill, N.J., Cat. No. 300-02) and allowed to incubate for 24 hours. The final test compound dose range was 30 μM to 14 nM in 200 μL F12K media containing 5% FBS, 0.3% DMSO.
On day three, the cell media was removed and the cells were washed with 200 μL PBS (phosphate buffered saline). Each well was trypsinized to dissociate the cells, then neutralized by addition of 200 μL complete F12K media. Cells were pelleted and stained with an APC conjugated mouse anti-human ICAM-1 (CD54) (BD Pharmingen, San Diego, Calif., Catalog #559771) antibody for 20 minutes at 4° C. Cells were washed with ice cold FACS buffer (PBS+2% FBS) and surface ICAM-1 expression was analyzed by flow cytometry. Detection was performed using a BD LSR I System Flow Cytometer, purchased from BD Biosciences of San Jose, Calif. Events were gated for live scatter and the geometric mean was calculated (Becton-Dickinson CellQuest software version 3.3, Franklin Lakes, N.J.). Geometric means were plotted against the compound concentration to generate a dose response curve.
(Flow cytometry measures light scatter and fluorescence of single cells or particles in a stream.)

Test [2] has as its system IL-4 stimulated CD23 upregulation in human Ramos B cells (JAK-1/JAK-3, Stat-6). In words: Assay for Ramos B-Cell Line Stimulated with IL-4 (CD23 upregulation, FACS). In kind it is cell-based. The conditions noted are these: Table III Example 3. Put shortly: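 Flow cytometry of CD23 staining after 20-24 h IL-4 stimulation (50 units/mL final) of human Ramos B cells in RPMI with 5% serum. Cells, 5×10^4 per point, received compound or DMSO vehicle for 1 h at 37° C prior to stimulation.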

With `Cc1ccc(Nc2ncc(C)c(Nc3ccc(CNS(=O)(=O)C4CC4)cc3)n2)cc1S(=O)(=O)NCc1ccccc1` [Compound I-195, N2-(3-benzylaminosulfonyl-4-methyl)phenyl-N4-(4-cyclopropylsulfonylaminomethyl)phenyl-5-methyl-2,4-pyrimidinediamine], the IC50 – broadly, the point on the concentration scale where inhibition reaches its midpoint – was 3540 nM in test [1] and 66.4 nM in test [2].
In the same order, the values of `Cc1ccc(Nc2ncc(F)c(Nc3ccc(CNS(=O)(=O)CC(F)(F)F)cc3)n2)cc1S(N)(=O)=O` [Compound I-50, N2-(3-aminosulfonyl-4-methyl)phenyl-5-fluoro-N4-(4-trifluoroethylsulfonylaminomethyl)phenyl-2,4-pyrimidinediamine] are 9350 nM and 34.3 nM.
In the case of `NS(=O)(=O)c1cccc(Nc2ncc(F)c(Nc3ccc(CNS(=O)(=O)CC(F)(F)F)cc3)n2)c1` [Compound I-49, N2-(3-aminosulfonyl)phenyl-5-fluoro-N4-(4-trifluoroethylsulfonylaminomethyl)phenyl-2,4-pyrimidinediamine], the IC50 in test [1] worked out at 78900 nM; in test [2] it was 46.8 nM.
The like results for `C#CCNS(=O)(=O)c1cccc(Nc2ncc(C)c(Nc3ccc(CNS(=O)(=O)C4CC4)cc3)n2)c1` [Compound I-165, N4-(4-cyclopropylsulfonylaminomethyl)phenyl-5-methyl-N2-(3-propargylaminosulfonyl)phenyl-2,4-pyrimidinediamine] were, in that order, 8970 nM and 34.8 nM.
Consider `Cc1ccc(Nc2ncc(F)c(Nc3ccc(CNS(=O)(=O)C4CCCC4)cc3)n2)cc1S(N)(=O)=O` [Compound I-70, N2-(3-aminosulfonyl-4-methyl)phenyl-N4-(4-cyclopentylsulfonylaminomethyl)phenyl-5-fluoro-2,4-pyrimidinediamine], for which the figures for the IC50 in test [1] and in test [2] were 2580 nM and 43 nM, respectively.
For `CCS(=O)(=O)NCc1cccc(Nc2nc(Nc3ccc(C)c(S(N)(=O)=O)c3)ncc2F)c1` [Compound I-13, N2-(3-aminosulfonyl-4-methyl)phenyl-N4-(3-ethylsulfonylaminomethyl)phenyl-5-fluoro-2,4-pyrimidinediamine], the figures for the IC50 in test [1] and in test [2] were 3630 nM and 136 nM, respectively.
As to `Cc1ccc(Nc2ncc(C)c(Nc3ccc(CNS(=O)(=O)C4CC4)cc3)n2)cc1S(=O)(=O)NC(C)C` [Compound I-189, N4-(4-cyclopropylsulfonylaminomethyl)phenyl-N2-(3-isopropylaminosulfonyl-4-methyl)phenyl-5-methyl-2,4-pyrimidinediamine], the results for the concentration for half-maximal inhibition (IC50) in test [1] and in test [2] were 1720 nM and 35.2 nM, respectively.
In the same order, the values of `CCS(=O)(=O)N[C@H](C)c1ccc(Nc2nc(Nc3cccc(S(N)(=O)=O)c3)ncc2F)cc1` [Compound I-30, N2-(3-aminosulfonyl)phenyl-N4-[4-(1R-ethylsulfonylamino)ethyl]phenyl-5-fluoro-2,4-pyrimidinediamine] are 6100 nM and 74.3 nM.
In the same order, the values of `Cc1cnc(Nc2ccc(S(N)(=O)=O)cc2)nc1Nc1ccc(CNS(=O)(=O)C(C)C)cc1` [Compound I-123, N2-(4-aminosulfonyl)phenyl-N4-(4-isopropylsulfonylaminomethyl)phenyl-5-methyl-2,4-pyrimidinediamine] are 19000 nM and 83.6 nM.
In the same order, the values of `NS(=O)(=O)c1ccc(Nc2ncc(F)c(Nc3ccc(CNS(=O)(=O)CC(F)(F)F)cc3)n2)cc1` [Compound I-48, N2-(4-aminosulfonyl)phenyl-5-fluoro-N4-(4-trifluoroethylsulfonylaminomethyl)phenyl-2,4-pyrimidinediamine] are 29900 nM and 263 nM.
Take `Cc1cnc(Nc2cccc(S(N)(=O)=O)c2)nc1Nc1ccc(CNS(=O)(=O)C2CC2)c(Cl)c1` [Compound I-119, N2-(3-aminosulfonyl)phenyl-N4-(3-chloro-4-cyclopropylsulfonylaminomethyl)phenyl-5-methyl-2,4-pyrimidinediamine]: the IC50 in test [1] was determined as 4420 nM; in test [2], 53.5 nM.
The like results for `Cc1cnc(Nc2cccc(S(N)(=O)=O)c2)nc1Nc1ccc(CN(C)S(=O)(=O)C2CC2)cc1` [Compound I-121, N2-(3-aminosulfonyl)phenyl-N4-[4-(N-cyclopropylsulfonyl-N-methyl)aminomethyl]phenyl-5-methyl-2,4-pyrimidinediamine] were, in that order, 36500 nM and 73.6 nM.
The like results for `COCCNS(=O)(=O)c1cccc(Nc2ncc(C)c(Nc3ccc(CNS(=O)(=O)C4CC4)cc3)n2)c1` [Compound I-184, N4-(4-cyclopropylsulfonylaminomethyl)phenyl-N2-[3-(2-methoxyethyl)aminosulfonyl]phenyl-5-methyl-2,4-pyrimidinediamine] were, in that order, 1410 nM and 14.1 nM.
For the compound `Cc1cnc(Nc2cccc(S(=O)(=O)NCC3CC3)c2)nc1Nc1ccc(CNS(=O)(=O)C2CC2)cc1` [Compound I-180, N2-(3-cyclopropylmethylaminosulfonyl)phenyl-N4-(4-cyclopropylsulfonylaminomethyl)phenyl-5-methyl-2,4-pyrimidinediamine], the IC50 in test [1] amounted to 2220 nM; in test [2], 25.7 nM.
The like results for `CCNS(=O)(=O)c1cccc(Nc2ncc(C)c(Nc3cccc(CNS(=O)(=O)C4CC4)c3)n2)c1` [Compound I-208, N4-(3-cyclopropylsulfonylaminomethyl)phenyl-N2-(3-ethylaminosulfonyl)phenyl-5-methyl-2,4-pyrimidinediamine] were, in that order, 1300 nM and 74.3 nM.
`C#CCNS(=O)(=O)c1cc(Nc2ncc(C)c(Nc3ccc(CNS(=O)(=O)C4CC4)cc3)n2)ccc1C` [Compound I-188, N4-(4-cyclopropylsulfonylaminomethyl)phenyl-5-methyl-N2-(4-methyl-3-propargylaminosulfonyl)phenyl-2,4-pyrimidinediamine]: the IC50 in test [1] worked out at 5080 nM; in test [2], 43.6 nM.
The like results for `NS(=O)(=O)c1ccc(Nc2ncc(F)c(Nc3ccc(CNS(=O)(=O)C4CCCCC4)cc3)n2)cc1` [Compound I-71, N2-(4-aminosulfonyl)phenyl-N4-(4-cyclohexylsulfonylaminomethyl)phenyl-5-fluoro-2,4-pyrimidinediamine] were, in that order, 10500 nM and 120 nM.
The like results for `CCCN(Cc1ccc(Nc2nc(Nc3cccc(S(N)(=O)=O)c3)ncc2C)cc1)S(=O)(=O)C1CC1` [Compound I-80, N2-(3-aminosulfonyl)phenyl-N4-[4-(N-cyclopropylsulfonyl-N-propylamino)methyl]phenyl-5-methyl-2,4-pyrimidinediamine] were, in that order, 4130 nM and 37.1 nM.
As for `CCS(=O)(=O)NCCc1ccc(Nc2nc(Nc3ccc(C)c(S(N)(=O)=O)c3)ncc2F)cc1` [Compound I-16, N2-(3-aminosulfonyl-4-methyl)phenyl-N4-[4-(2-ethylsulfonylamino)ethyl]phenyl-5-fluoro-2,4-pyrimidinediamine], the IC50 in test [1] was determined as 9010 nM; in test [2], 148 nM.
In the same order, the values of `CCC(=O)N(Cc1cccc(Nc2nc(Nc3cccc(S(N)(=O)=O)c3)ncc2C)c1)S(=O)(=O)C1CC1` [Compound I-116, N2-(3-aminosulfonyl)phenyl-N4-[3-(N-cyclopropylsulfonyl-N-propionyl)aminomethyl]phenyl-5-methyl-2,4-pyrimidinediamine] are 1830 nM and 36.7 nM.
